15 compounds from patent US10377753B2, “Substituted 4-azaindoles and their use as GluN2B receptor modulators” (Janssen Pharmaceutica NV, priority 2015, dated 2019) can be followed below.

In the test the target is cloned human NR1/NR2B ion channels (Homo sapiens (Human), UniProt Q05586+Q13224). Description: HNR2BC: effects of test articles on cloned human NR1/NR2B ion channels expressed in mammalian cells (FLIPR calcium flux). It counts as cell-based. Particulars: Table 5. The protocol: HNR2BC: Effects of Test Articles on Cloned Human NR1/NR2B Ion Channels Expressed in Mammalian Cells
cloned human NR1/NR2B ion channels, sequence (Q13224 27-1484, other chains not shown): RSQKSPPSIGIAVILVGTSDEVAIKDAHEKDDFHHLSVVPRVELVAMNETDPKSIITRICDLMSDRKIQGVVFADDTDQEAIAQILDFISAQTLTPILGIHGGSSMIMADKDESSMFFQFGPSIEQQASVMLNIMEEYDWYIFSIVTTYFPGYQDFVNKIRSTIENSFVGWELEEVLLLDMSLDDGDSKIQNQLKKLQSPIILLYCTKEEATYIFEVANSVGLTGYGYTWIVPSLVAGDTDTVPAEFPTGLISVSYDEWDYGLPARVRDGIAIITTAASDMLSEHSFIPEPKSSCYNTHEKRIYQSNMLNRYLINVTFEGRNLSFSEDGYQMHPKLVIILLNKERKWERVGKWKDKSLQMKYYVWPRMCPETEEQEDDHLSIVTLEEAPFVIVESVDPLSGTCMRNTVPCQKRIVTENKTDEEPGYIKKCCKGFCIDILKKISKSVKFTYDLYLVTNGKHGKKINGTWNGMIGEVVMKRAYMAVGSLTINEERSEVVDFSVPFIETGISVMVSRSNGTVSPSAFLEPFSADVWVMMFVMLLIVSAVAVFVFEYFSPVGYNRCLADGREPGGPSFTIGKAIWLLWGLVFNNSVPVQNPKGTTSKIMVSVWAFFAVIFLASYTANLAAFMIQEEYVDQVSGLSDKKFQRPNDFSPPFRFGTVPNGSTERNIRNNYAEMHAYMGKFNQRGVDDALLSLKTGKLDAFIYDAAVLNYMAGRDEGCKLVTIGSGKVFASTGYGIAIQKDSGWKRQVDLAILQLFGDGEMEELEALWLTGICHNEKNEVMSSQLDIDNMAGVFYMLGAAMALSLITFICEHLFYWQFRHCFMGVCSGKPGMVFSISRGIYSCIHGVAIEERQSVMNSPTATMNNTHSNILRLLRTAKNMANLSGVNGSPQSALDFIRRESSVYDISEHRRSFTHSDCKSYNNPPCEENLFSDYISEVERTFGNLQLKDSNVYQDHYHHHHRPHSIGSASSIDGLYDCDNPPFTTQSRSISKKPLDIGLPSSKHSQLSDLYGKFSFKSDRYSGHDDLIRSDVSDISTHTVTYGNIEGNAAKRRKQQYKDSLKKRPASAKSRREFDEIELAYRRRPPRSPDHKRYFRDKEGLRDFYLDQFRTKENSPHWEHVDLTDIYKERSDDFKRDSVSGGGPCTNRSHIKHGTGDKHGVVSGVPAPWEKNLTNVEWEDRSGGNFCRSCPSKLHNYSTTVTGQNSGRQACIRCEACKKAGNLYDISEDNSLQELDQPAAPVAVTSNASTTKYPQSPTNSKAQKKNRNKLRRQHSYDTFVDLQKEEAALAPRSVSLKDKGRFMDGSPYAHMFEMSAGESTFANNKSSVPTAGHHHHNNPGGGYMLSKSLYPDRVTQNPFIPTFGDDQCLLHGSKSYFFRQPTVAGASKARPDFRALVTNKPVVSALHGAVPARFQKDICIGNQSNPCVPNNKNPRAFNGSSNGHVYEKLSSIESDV
NMDA receptors are ion channels that are highly permeable to Ca^2+ ions, rendering it possible to monitor NMDA receptor function using cell-based calcium flux assay. In this assay, co-agonists glutamate and glycine are added to cells heterologously expressing human GluN1/GluN2B NMDA receptors to initiate cellular Ca^2+ influx. The time course of the changes in intracellular calcium is measured using a fluorescent dye and a FLIPR (Fluorometric Imaging Plate Reader) device.
Twenty four hours before measurements, the expression of the NMDA receptors in the stable cell line is induced with Tet-On inducible system in the presence of a non-selective NMDA receptor blocker. On the day of the experiment, cell culture media is carefully washed and the cells are loaded with Calcium 5 Dye Kit (Molecular Devices) in dye loading buffer containing 137 mM NaCl, 4 mM KCl, 2 mM CaCl2, 0.5 mM MgCl2, 10 mM HEPES and 5 mM D-glucose; pH 7.4. After 1 h incubation at the room temperature, the dye is washed away with the assay buffer (137 mM NaCl, 4 mM KCl, 2 mM CaCl2, 0.01 mM EDTA, 10 mM HEPES and 5 mM D-glucose; pH 7.4) In the FLIPR TETRA reader, various concentrations of the test compounds are added to the cells for 5 min while fluorescence is monitored to detect potential agonist activity. Next, co-agonists, glutamate and glycine are added for another 5 minutes. The concentration of glutamate corresponding to ˜EC80 is used to maximize the assay's signal window and ability to detect NMDA receptor antagonists and negative allosteric modulators. A saturating concentration (10 μM) of glycine is also present in the assay. […] The fluorescent signal in the presence of test compounds is quantified and normalized to the signal defined by the appropriate control wells.

Where [1] appears, read: cloned human NR1/NR2B ion channels.

pIC50: −log10 of the molar value. Structures can show the parent of a compound that is named as a salt.

Usually pIC50 stands for the negative decadic logarithm of the IC50, by convention in mol/L. Turning to `Cc1c(F)ccc(-c2cnc3c(F)cn(CC(=O)N(C)C)c3c2)c1F` [Example 502, 2-[6-(2,4-Difluoro-3-methyl-phenyl)-3-fluoro-pyrrolo[3,2-b]pyridin-1-yl]-N,N-dimethyl-acetamide], under setting [1], the pIC50 is 7.40. Consider `O=C(Cn1cc(Cl)c2ncc(-c3cccc(Cl)c3F)cc21)N1CCC1` [Example 528, 1-(Azetidin-1-yl)-2-[3-chloro-6-(3-chloro-2-fluoro-phenyl)pyrrolo[3,2-b]pyridin-1-yl]ethanone], for which the pIC50 under setting [1] is 7.40. As for `O=C(Cn1cc(F)c2ncc(-c3cc(F)cc(F)c3)cc21)N1CC(F)C1` [Example 487, 2-[6-(3,5-Difluorophenyl)-3-fluoro-pyrrolo[3,2-b]pyridin-1-yl]-1-(3-fluoroazetidin-1-yl)ethanone], under setting [1], the pIC50 is 7.30. The same measure, in the same setting: then `Cc1ccc(-c2cnc3c(C)cn(CC(=O)N4CCCC4)c3c2)s1` [Example 631, 2-[3-Methyl-6-(5-methyl-2-thienyl)pyrrolo[3,2-b]pyridin-1-yl]-1-pyrrolidin-1-yl-ethanone], with 6.80; and `O=C(Cn1ccc2ncc(-c3cccc(Cl)c3F)cc21)N1CC(F)C1` [Example 466, 2-[6-(3-Chloro-2-fluoro-phenyl)pyrrolo[3,2-b]pyridin-1-yl]-1-(3-fluoroazetidin-1-yl)ethanone], with 7.70. As to `Cc1cccc(-c2cnc3cc(C)n(CC(=O)N4CCC4)c3c2)c1` [Example 41, 1-(Azetidin-1-yl)-2-[2-methyl-6-(m-tolyl)pyrrolo[3,2-b]pyridin-1-yl]ethanone], for the setting “cloned human NR1/NR2B”, the negative logarithm of the IC50 (pIC50) is 7.60.

As for `CN(C)C(=O)Cn1cc(F)c2ncc(-c3ccc(F)c(F)c3F)cc21` [Example 501, 2-[3-Fluoro-6-(2,3,4-trifluorophenyl)pyrrolo[3,2-b]pyridin-1-yl]-N,N-dimethyl-acetamide], the negative-log IC50 (pIC50) under setting [1] is 7.40. The same measure, in the same setting: then `CN(C)C(=O)Cn1cc(F)c2ncc(-c3ccc(F)c(C(F)(F)F)c3)cc21` [Example 605, 2-[3-Fluoro-6-[4-fluoro-3-(trifluoromethyl)phenyl]pyrrolo[3,2-b]pyridin-1-yl]-N,N-dimethyl-acetamide], with 7.20. As to `Cc1cccc(-c2cnc3ccn(CC(=O)N4CCC4)c3c2)c1C` [Example 165, 1-(Azetidin-1-yl)-2-[6-(2,3-dimethylphenyl)pyrrolo[3,2-b]pyridin-1-yl]ethanone trifluoroacetate salt], the pIC50 (cloned human NR1/NR2B) is 7.20. On to `CCN(C)C(=O)Cn1ccc2ncc(-c3ccc(F)c(F)c3)cc21` [Example 461, 2-[6-(3,4-Difluorophenyl)pyrrolo[3,2-b]pyridin-1-yl]-N-ethyl-N-methyl-acetamide], for which the pIC50 under setting [1] was 7.50. Regarding `Cc1cc(-c2cnc3ccn(CC(F)C4CC4)c3c2)ccc1F` (racemic) [Example 289, (R/S)-1-(2-Cyclopropyl-2-fluoro-ethyl)-6-(4-fluoro-3-methyl-phenyl)pyrrolo[3,2-b]pyridine], the pIC50 (cloned human NR1/NR2B) is 7.10. Regarding `O=C(C1CCC1)n1ccc2ncc(-c3ccc(F)c(F)c3)cc21` [Example 116, Cyclobutyl-[6-(3,4-difluorophenyl)pyrrolo[3,2-b]pyridin-1-yl]methanone], for the setting “cloned human NR1/NR2B”, the pIC50 was 6.10.

As for `O=C(Cn1ccc2ncc(-c3ccc(F)c(F)c3)cc21)N1CC(F)(F)C1` [Example 361, 1-(3,3-Difluoroazetidin-1-yl)-2-[6-(3,4-difluorophenyl)pyrrolo[3,2-b]pyridin-1-yl]ethanone], where the note is “cloned human NR1/NR2B”, the negative logarithm of the IC50 (pIC50) was 7.60. As for `O=C(Cn1cc(Cl)c2ncc(-c3cc(F)cc(F)c3)cc21)N1CCC1` [Example 532, 1-(Azetidin-1-yl)-2-[3-chloro-6-(3,5-difluorophenyl)pyrrolo[3,2-b]pyridin-1-yl]ethanone], the pIC50 under setting [1] is 7.30. The same measure, in the same setting: then `Cc1cn(CC(=O)N(C)C)c2cc(-c3ccc(F)c(F)c3)cnc12` [Example 549, 2-[6-(3,4-Difluorophenyl)-3-methyl-pyrrolo[3,2-b]pyridin-1-yl]-N,N-dimethyl-acetamide], with 7.10.
